From US20160022724A1, “METHODS FOR TREATING PARAMYXOVIRUSES” (Alios BioPharma, Inc., priority 2014, published 2016)

Columns and labels:
[1] = tested on: RSV-A Memphis 37b challenge virus; experiment: human RSV challenge model (viral load in nasal washes by plaque assay and PCR); type: in vivo
Experimental: Healthy adults received one of the following dosing regimens or placebo over 5 days using the human RSV challenge model.
Subjects were given an intranasal inoculation of RSV-A Memphis 37b challenge virus. Administration of compound (A), or a pharmaceutically acceptable salt thereof, began approximately 12 hours after confirmation of RSV infection as determined by the presence of RSV RNA in nasopharyngeal washes. The test compound was administered as an oral-liquid suspension, wherein the drug vehicle was methyl cellulose and sterile water. The placebo was the drug vehicle without the test compound. Second dosages were started 12 hours after administration of the first dosage, and the remaining second dosages were provided in approximate 12 hour intervals. Nasal washes were collected twice daily approximately 36 to 48 hours after RSV inoculation until Day 12. Viral load was detected and quantified from the aliquots of the nasal wash samples using tissue infectivity plaque assays and PCR. (See DeVincenzo, J. P., et al., Am. J. Respir. Crit. Care. Med. (2010) 182(10):1305-1314) Subjects returned for two follow-up visits on Day 16 (±2 days) and Day 28 (±2 days) post-challenge inoculation.

[2] = half life of the triphosphate compound (B); settings: triphosphate formed inside the cell
Source text: The compounds (A) and (B), or a pharmaceutically acceptable salt of the foregoing, are described in U.S. Publication Nos. 2013/0165400 and 2015/0051167 and International Publication Nos. WO 2013/142525 and WO 2013/142525, all of which are hereby incorporated by reference in their entireties. Those skilled in the art understand that once compound (A), or a pharmaceutically acceptable salt thereof, is absorbed, the groups attached to 3′ and 5′ positions can be easily removed by esterases, proteases and/or other enzymes. Once inside the cell, the triphosphate (compound (B), or a pharmaceutically acceptable salt thereof) can be formed via metabolization by cellular enzymes.

SMILES | RSV RNA ([1]; Day 12, all treated subjects) | RSV RNA ([1]; Day 16 follow-up) | RSV RNA ([1]; Day 28 follow-up) | RSV viral load compared to the placebo ([1]; all regimens (750/150 mg, 750/500 mg, 375 mg), oral, 5 days, healthy adults, nasal wash, FIG. 1) | clinically significant laboratory abnormalities ([1]; healthy adults, 5 days dosing) | discontinuation of treatment during the study ([1]; healthy adults, 5 days dosing) | reduction of plaque forming units equivalents (PFUe/mL) ([1]; subjects who received 750 mg on Day 1, within the first 24 hours) | half-life [2] [h]
CC(C)C(=O)OC[C@@]1(CCl)O[C@@H](n2ccc(N)nc2=O)[C@H](F)[C@@H]1OC(=O)C(C)C [Compound (A)] | undetectable | undetectable | undetectable | marked reduction in RSV viral load | no clinically significant laboratory abnormalities were observed | no subject discontinued treatment | multi-log reduction | –
Nc1ccn([C@@H]2O[C@](CCl)(COP(=O)(O)OP(=O)(O)OP(=O)(O)O)[C@@H](O)[C@H]2F)c(=O)n1 [Compound (B)] | – | – | – | – | – | – | – | ~17.6
